Structures can show the parent of a compound that is named as a salt. Where two headings read alike, the source gives them in different places.
Experiments:
[1] = molecular target: rBIIa/beta 1 sodium channels expressed in Xenopus oocytes (Rattus norvegicus, UniProt P04775); assay: Electrophysiological Assay 2: two-electrode voltage clamp in Xenopus oocytes; format: cell-based; conditions: apparent Ki for the inactivated state from single point inhibition data, read-out: RBIIA/β1 Ki
Description: Electrophysiological Assay 2 was used to measure potencies of compounds of the present invention rBIIa/beta 1 sodium channels expressed in Xenopus oocytes.
Preparation of cRNA encoding cloned rat brain type IIa (rBIIa) and beta 1 (β1): cDNA clones encoding the rat brain beta 1 subunit were cloned in house using standard methods, and mRNA were prepared by standard methods. mRNA encoding rBIIa was provided by Dr. A. Golden (UC Irvine). The mRNAs were diluted and stored at −80° C. in 1 μL aliquots until injection.
Preparation of oocytes: Mature female Xenopus laevis were anaesthetized (20-40 min) using 0.15% 3-aminobenzoic acid ethyl ester (MS-222) following established procedures (Woodward, R. M., et al., Mol. Pharmacol. 41:89-103 (1992)).
Two to six ovarian lobes were surgically removed. Oocytes at developmental stages V-VI were dissected from the ovary, oocytes were still surrounded by enveloping ovarian tissues. Oocytes were defolliculated on the day of surgery by treatment with collagenase (0.5 mg/mL Sigma Type I, or Boehringer Mannheim Type A, for 0.5-1 hr). Treated oocytes were vortexed to dislodge epithelia, washed repeatedly and stored in Barth's medium containing 88 mM NaCl, 1 mM KCl, 0.41 mM CaCl2, 0.33 mM Ca(NO3)2, 0.82 mM MgSO4, 2.4 mM NaHCO3, 5 mM HEPES, pH 7.4 adjusted with 0.1 mg/mL gentamycin sulphate.
Micro-injection of oocytes: Defolliculated oocytes were micro-injected using a Nanoject injection system (Drummond Scientific Co., Broomall, Pa.). Injection pipettes were beveled to minimize clogging. Tip diameter of injection pipettes was 15-35 μm. Oocytes were microinjected with approximately 50 nL 1:10 ratio mixtures of cRNAs for rBIIa and beta 1 respectively.
Electrophysiology: Membrane current responses were recorded in frog Ringer solution containing 115 mM NaCl, 2 mM KCl, 1.8 mM CaCl2, 5 mM HEPES, pH 7.4. Electrical recordings were made using a conventional two-electrode voltage clamp (Dagan TEV-200) over periods ranging between 1-7 days following injection. The recording chamber was a simple gravity fed flow-through chamber (volume […] depending on adjustment of aspirator). Oocytes were placed in the recording chamber, impaled with electrodes and continuously perfused (5-15 mL min^−1) with frog Ringer's solution. The tested compounds were applied by bath perfusion.
Voltage protocols for evoking sodium channel currents: The standard holding potential for whole oocyte clamp was −120 mV. Standard current-voltage relationships were elicited by 40 ms depolarizing steps starting from −60 mV to +50 mV in 10 mV increments. Peak currents were measured as the maximum negative current after depolarizing voltage steps. The voltage from maximum current response was noted and used for the next voltage protocol.
The purpose was to find compounds that are state dependent modifiers of neuronal sodium channels. Preferably, the compounds have a low affinity for the rested/closed state of the channel, but a high affinity for the inactivated state. The following voltage protocol was used to measure a compounds affinity for the inactivated state. Oocytes were held at a holding potential of −120 mV. At this membrane voltage, nearly all of the channels would be in the closed state. Then a 4 second depolarization was made to the voltage where the maximum current was elicited. At the end of this depolarization, nearly all the channels would be in the inactivated state. A 10 ms hyperpolarizing step was then made in order to remove some channels from the incativated state. A final depolarizing test pulse was used to assay the sodium current after this prolonged depolarization (see analysis below). Sodium currents were measured at this test pulse before and after the application of the tested compound. Data was acquired using pClamp 8.0 software and analyzed with clampfit software (Axon instruments). […]

[2] = test system: maximal electroshock-induced seizures (MES); assay: Maximum electroshock seizure test (MES), anticonvulsant evaluation; format: in vivo; conditions: Mus musculus, mice
Source text: The compounds of the present invention may be tested for in vivo anticonvulsant activity after i.v., p.o. or i.p. injection using a number of anticonvulsant tests in mice, including the maximum electroshock seizure test (MES). Maximum electroshock seizures were induced in male NSA mice weighing between 15-20 g and male Sprague-Dawley rats weighing between 200-225 g by application of current (50 mA, 60 pulses/sec, 0.8 msec pulse width, 1 sec duration, D.C., mice; 99 mA, 125 pulses/sec, 0.8 msec pulse width, 2 sec duration, D.C., rats) using a Ugo Basile ECT device (Model 7801). Mice were restrained by gripping the loose skin on their dorsal surface and saline-coated corneal electrodes were held lightly against the two corneae. Rats were allowed free movement on the bench top and ear-clip electrodes were used. […] A tonic seizure was defined as a hindlimb extension in excess of 90 degrees from the plane of the body. Results were treated in a quantal manner.
The ability of 4-[4-(4-fluorophenoxy)phenyl]-pyrimidine-2-carboxamide to block maximal electroshock-induced seizures (MES) was determined according to the method above.
4-[4-(4-Fluorophenoxy)phenyl]-pyrimidine-2-carboxamide was administered p.o. to mice 30 minutes before the test procedure.
The following compounds on Table 1 were tested accordingly after a p.o. administration and also after an i.v. injection. The compounds were injected i.v. 15 minutes before the test procedure.

[3] = iv, i.v. injection 15 minutes before the test, read-out: MES i.v. ED50
[4] = po, p.o., 30 minutes before the test, ED50 = dose protecting 50% of animals, read-out: MES p.o. ED50

| Compound | Ki [1] [µM] | ED50 [2, 3] [mg/kg] | ED50 [2, 4] [mg/kg] |
| --- | --- | --- | --- |
| 4-[4-(4-fluorophenoxy)phenyl]pyrimidine-2-carbamate | 8.7 |  |  |
| CN(C)C(=O)c1cc(N(C)C)nc(-c2ccc(Oc3ccccc3)cc2)n1 [2-(4-phenoxyphenyl)-6-(dimethylamino)pyrimidine-4-carboxylic acid dimethylamide] |  | 2.1 |  |
| Fc1ccc(Oc2ccc(-c3ccnc(-c4nc[nH]n4)n3)cc2)cc1 [2-[3-(1,2,4-triazolyl)]-4-[4-(4-fluorophenoxy)phenyl]pyrimidine] | 5.91 |  |  |
| CN(C)C=NC(=O)c1ccnc(-c2ccc(Oc3ccc(Cl)cc3F)cc2)n1 [2-[4-(4-chloro-2-fluorophenoxy)phenyl]pyrimidine-4-carboxylic acid dimethylaminomethyleneamide] |  | 1.5 | 4.1 |
| CN(C)c1nccc(-c2ccc(Oc3ccc(F)cc3)cc2)n1 [2-dimethylamino-4-[4-(4-fluorophenoxy)phenyl]pyrimidine] | 27.6 |  |  |
| Cc1nc(-c2ccc(Oc3ccc(F)cc3)cc2)ccc1C(N)=O [2-methyl-6-[4-(4-fluorophenoxy)phenyl]pyridine-3-carboxamide] | 8.45 |  |  |
| COC(=O)c1nccc(-c2ccc(Oc3ccc(F)cc3F)cc2)n1 [4-[4-(2,4-difluorophenoxy)phenyl]pyrimidine-2-carboxylic acid methyl ester] | 139 |  |  |
| CCOC(=O)c1nccc(-c2ccc(Oc3ccc(F)cc3)cc2)n1 [4-[4-(4-Fluorophenoxy)phenyl]-pyrimidine-2-carboxylic acid ethyl ester] | 9.86 |  |  |
| CNC(=O)c1nccc(-c2ccc(Oc3ccc(F)cc3)cc2)n1 [4-[4-(4-Fluorophenoxy)phenyl]-pyrimidine-2-carboxylic acid methylamide] |  | 2.8 | 6.1 |
| O=C(NCCCl)c1nccc(-c2ccc(Oc3ccc(F)cc3)cc2)n1 [4-[4-(4-fluorophenoxy)phenyl]pyrimidine-2-carboxylic acid 2-chloroethylamide] | 2.62 |  |  |
| O=CNC(=O)c1nccc(-c2ccc(Oc3ccc(F)cc3)cc2)n1 [4-[4-(4-fluorophenoxy)phenyl]pyrimidine-2-carboxylic acid hydroxymethyleneamide] | 3.53 | 1.5 | 5 |
| CNC=NC(=O)c1nccc(-c2ccc(Oc3ccc(F)cc3)cc2)n1 [4-[4-(4-fluorophenoxy)phenyl]pyrimidine-2-carboxylic acid methylaminomethyleneamide hydrochloride] | 11.4 |  |  |
| CC(C)(C)c1ccc(-c2cccc(C(N)=O)n2)cc1 [Compound 8a, 6-(4-tert-butylphenyl)pyridine-2-carboxamide] | 6.13 |  |  |
| CCCCc1ccc(-c2cccc(C(N)=O)n2)cc1 [Compound 8b, 6-(4-n-butylphenyl)pyridine-2-carboxamide] | 10.5 |  |  |
| Cc1cc(N(C)C)cc(-c2ccc(Oc3ccc(F)cc3)cc2)n1 [Compound 14, 2-Methyl-4-dimethylamino-6-[4-(4-fluorophenoxy)phenyl]pyridine] | 0.33 |  |  |
| COc1cc(C(=O)NCCN(C)C)nc(-c2ccc(Oc3ccc(F)cc3)cc2)c1 [Compound 19, 4-Methoxy-6-[4-(4-fluorophenoxy)phenyl]pyridine-2-carboxylic acid dimethylaminoethylamide] | 0.32 |  |  |

Further lines, with some results ahead:

| Ki [1] [µM] | Compound | ED50 [2, 3] [mg/kg] | ED50 [2, 4] [mg/kg] |
| --- | --- | --- | --- |
| 10.6 | O=C(c1nccc(-c2ccc(Oc3ccc(F)cc3)cc2)n1)C(Br)Br [1-[4-[4-(4-fluorophenoxy)phenyl]pyrimidine-2-yl]-2,2-dibromoethanone] |  |  |
| 2.63 | Fc1ccc(Oc2ccc(-c3ccnc(-c4ccno4)n3)cc2)cc1 [2-(5-isoxazolyl)-4-[4-(4-fluorophenoxy)phenyl]pyrimidine] |  |  |
| 71.5 | COC(=O)c1ccnc(-c2ccc(Oc3ccc(F)cc3)cc2)n1 [2-[4-(4-fluorophenoxy)phenyl]pyrimidine-4-carboxylic acid methyl ester] |  |  |
| 1.13 | NC(=O)c1nccc(-c2ccc(Oc3ccc([N+](=O)[O-])cc3)cc2)n1 [4-[4-(4-Nitrophenoxy)phenyl]-pyrimidine-2-carboxamide] | 3.1 | 10 |
| 11.9 | N#Cc1ccc(C(N)=O)nc1-c1ccc(Oc2ccccc2)cc1 [5-cyano-6-(4-phenoxyphenyl)pyridine-2-carboxamide] |  |  |
| 99.3 | NC(=O)c1ccc(O)c(-c2ccc(Oc3ccccc3)cc2)n1 [5-hydroxy-6-(4-phenoxyphenyl)pyridine-2-carboxamide] |  |  |
| 4.54 | NC(=O)c1ccc(-c2ccc(Oc3ccc(F)cc3)cc2)nc1C(N)=O [6-[4-(4-fluorophenoxy)phenyl]pyridine-2,3-dicarboxamide] |  |  |
| 0.06 | O=C(NCCN1CCCCC1)c1cccc(-c2ccc(Oc3ccc(F)cc3)cc2)n1 [Compound 3, 6-[4-(4-fluorophenoxy)Phenyl]Pyridine Carboxylic Acid N-piperidinylethylamide] |  |  |
| 41.6 | CC(C)c1ccc(-c2cccc(C(N)=O)n2)cc1 [Compound 8c, 6-(4-i-propylphenyl)pyridine-2-carboxamide] |  |  |
| 52.7 | CSc1ccc(-c2cccc(C(N)=O)n2)cc1 [Compound 8d, 6-(4-thiomethylphenyl)pyridine-2-carboxamide] |  |  |
| 58.7 | CCOc1ccc(-c2cccc(C(N)=O)n2)cc1 [Compound 8e, 6-(4-ethoxyphenyl)pyridine-2-carboxamide] |  |  |
| 23.9 | COc1ccc(-c2cccc(C(N)=O)n2)cc1 [Compound 8f, 6-(4-methoxyphenyl)pyridine-2-carboxamide] |  |  |
| 3.43 | COc1cc(C(N)=O)nc(-c2ccc(Oc3ccc(F)cc3)cc2)c1 [Compound 18, 4-Methoxy-6-[4-(4-fluorophenoxy)phenyl]pyridine-2-carboxamide] |  |  |
